Data taken from patent publication US20090036531A1, “Method for treatment of onychomycosis” (priority 2005, published 2009).
Where two headings read alike, the source gives them in different places.

Experiments:
[1] = cited from earlier work
onychomycosis = conditions: continuous therapy (ingestion); cited from earlier work
Onychomycosis fungi = experiment: Addition of undecylenic acid or hydroquinone to cyanoacrylate ester on infected nails; type: in vivo; conditions: for effect on yellow color of infected nails: added to cyanoacrylate ester

2-ETHYL CYANO ACRYLATE
Soluble In ([1]; Cured State): Pacer X-8 Debonder, Acetone,
Soluble In ([1]; Liquid State): Acetone, MEK, Nitromethane

CN(C/C=C/C#CC(C)(C)C)Cc1cccc2ccccc12 [Lamisil, terbinafine]
Cure of all nails (share of subjects) (onychomycosis): 25%
complete cure (onychomycosis): 41%
mycological cure (onychomycosis): 71%

Oc1ccc(O)cc1 [hydroquine]
effect on yellow color of infected nails (Onychomycosis fungi): remove the yellow-color of infected nails

C=CCCCCCCCCC(=O)O [undecylenic acid]
effect on yellow color of infected nails (Onychomycosis fungi): remove the yellow-color of infected nails
effect on spread of infection (Onychomycosis fungi; addition of 1-12%, preferably 2-10%): inhibit the spread of infection
